Source: patent publication US20240188561A1, “ADDITIVES FOR ENHANCING THE PESTICIDAL EFFECTIVENESS OF PESTICIDAL MICROORGANISMS” (priority 2021, published 2024)

Tests used:
Experiment in all cases: Additive compatibility with microbial growth (growth slope by OD 620 nm)
Type in all cases: cell-based
Conditions in all cases: additive 0.01-5 %, exposed 4 hours at 16° C., then tryptic soy broth 30° C., slope compared to 0% sample
Bacillus firmus = tested on: Bacillus firmus
[1] = tested on: Bacillus amyloliquefaciens
Pseudomonas fluorescens = tested on: Pseudomonas fluorescens
Bacillus subtilis = tested on: Bacillus subtilis

Molecule	Influence of additive on microbial growth slope (compatibility), Bacillus firmus (Bacillus firmus)	Influence of additive on microbial growth slope (compatibility), Bacillus amyloliquefaciens [1]	Influence of additive on microbial growth slope (compatibility), Pseudomonas fluorescens (Pseudomonas fluorescens)	Influence of additive on microbial growth slope (compatibility), Bacillus subtilis (Bacillus subtilis)
C8-C10 alkylpolyglycoside [iv-1]	N	N	N	N
Sorbitan monooleate [xii-1]	S	S	E (E represents an Enhancing result)	S
Magnesium Oleate [xviii-1]	S	–	S	S
Butyl alcohol POP 31 POE 31 [vii-7]	N	N	N	N
Castor Oil POE 16 [vi-3]	N	N	N	N
Soybean Oil POE 30 [vi-2]	N	S	N	S
PEG 400 monolaurate [v-1]	–	N	S	N
C12-C14 dimethyl amide [xv-3]	S	S	–	S
Sorbitan monooleate POE 20 [xii-3]	S	N	N	N
Sodium Lauryl ether sulfate [xvii-1]	S	S	S	S
CC(O)C(=O)N(C)C (centres unmarked) [xv-1, Dimethyl lactamide]	N	S	N	S
2-propylheptanol Alkoxylate with 7 moles EO [xi-5]	S	S	S	S
Soybean Oil POE 10 [vi-1]	S	N	E (E represents an Enhancing result)	N
2-propylheptanol POE 5 [xi-3]	S	S	S	S
Sorbitan trioleate POE 20 [xii-4]	S	S	S	N
CCCCCCCC/C=C\CCCCCCCC(=O)OC [ii-4, Oleic acid methyl ester]	N	E (E represents an Enhancing result)	N	N

Molecule	Influence of additive on microbial growth slope (compatibility), Bacillus firmus (Bacillus firmus)	Influence of additive on microbial growth slope (compatibility), Bacillus amyloliquefaciens [1]	Influence of additive on microbial growth slope (compatibility), Pseudomonas fluorescens (Pseudomonas fluorescens)	Influence of additive on microbial growth slope (compatibility), Bacillus subtilis (Bacillus subtilis)
Olleyl-Cetyl alcohol (80% Oleyl) [xvi-2]	S	N	N	N
Sodium Tallowate [xviii-2]	–	–	S	–
Dibutyl Naphthalene Sulfonate, Sodium [viii-1]	–	E (E represents an Enhancing result)	–	E (E represents an Enhancing result)
Isodecyl alcohol POE6 phosphate ester [xix-3]	S	S	S	S
C8-C10 fatty alcohol [xvi-1]	S	S	S	S
PEG 400 monooleate [v-2]	–	N	S	N
Tallow amine POE15 [xiii-1]	S	S	E (E represents an Enhancing result)	S
Sorbitan monolaurate POE 20 [xii-2]	S	S	S	S
Castor Oil POE 40 [vi-4]	N	N	–	N
C12-C16 alkylpolyglycoside [iv-2]	S	S	N	S
Tridecyl alcohol POE 9 [xi-2]	S	S	S	S
C12-C18 fatty acid methyl ester [ii-2]	S	N	N	N
Tridecyl alcohol POE 10 phosphate ester [xix-1]	S	S	S	S
Tridecyl alcohol POE 3 [xi-1]	S	S	S	S
Tallow amine POE20 [xiii-2]	S	S	–	S
